Where two headings read alike, the source gives them in different places.
Legend:
[1] = target: human GABAA α5β2γ1 receptor (Homo sapiens (Human), UniProt P31644+Q8N1C3); assay: Radioligand binding assay, competition for [3H]RO7239181, γ1-containing GABAA subtypes
Experimental: The affinity of compounds at GABAA γ1 subunit-containing receptors was measured by competition for [^3H]RO7239181 (67.3 Ci/mmol; Roche) binding to membranes from HEK293F cells (ThermoFisher R79007) expressing human (transiently transfected) receptors of composition α5β2γ1, α2β2γ1, α1β2γ1. For better protein expression of the α2 subunit-containing receptors, the 28 amino acid long signal peptide (Met1 to Ala28) of the human GABAA α2 subunit was substituted by the 31 amino acid long signal peptide (Met1 to Ser31) of human GABAA α5 subunit.
(§1) Harvested pellets from HEK293F cells expressing the different GABAA receptor subtypes were resuspended in Mannitol Buffer pH 7.2-7.4 (Mannitol 0.29 M, Triethylamine 10 mM, Acetic acid 10 mM, EDTA 1 mM plus protease inhibitors (20 tablets Complete, Roche Diagnostics Cat. No. 05 056 489 001 per liter)), washed two times and then resuspended at 1:10 to 1:15 dilution in the same buffer. Cell disruption was performed by stirring the suspension in a Parr vessel #4637 at 435 psi for 15 minutes, and then the suspensions were centrifuged at 1000×g for 15 minutes at 4° C. (Beckman Avanti J-HC; rotor JS-4.2). The supernatant (S1) was transferred in a 21 Schott flask and the pellet (P1) was resuspended with Mannitol Buffer up to 175 ml. The resuspended pellet was transferred into a 250 ml Corning centrifugal beaker and centrifuged at 1500×g for 10 minutes at 4° C. (Beckman Avanti J-HC; rotor JS-4.2). The supernatant (S1) was then transferred in the 21 Schott flask and the pellet was discarded. The supernatants (S1) were centrifuged in 500 ml Beckman polypropylene centrifugal beaker at 15'000×g for 30 minutes at 4° C. (Beckman Avanti J-20 XP; rotor JLA-10.500). The pellet (P2) was resuspended with Mannitol Buffer 1:1 and frozen at −80° C. The supernatant (S2) was centrifuged in 100 ml Beckman polypropylene centrifugal tubes at 48000×g for 50 minutes at 4° C. (Beckman Avanti J-20 XP; rotor JA-18). The supernatant (S3) was discarded and the pellet (P3) was resuspended with 1:1 Mannitol Buffer. The P2 and P3 protein concentration was determined with the BIORAD Standard assay method with bovine serum albumin as standard and measured on the NANO-Drop 1000. The membrane suspension was aliquots (500 μl per tube) and stored at −80° C. until required.
(§2) Membrane homogenates were resuspended and polytronised (Polytron PT1200E Kinematica AG) in Potassium Phosphate 10 mM, KCl 100 mM binding buffer at pH 7.4 to a final assay concentration determined with a previous experiment.
Radioligand binding assays were carried out in a volume of 200 μL (96-well plates) which contained 100 μL of cell membranes, [^3H]RO7239181 at a concentration of 1.5 nM (α5β2γ1) or 20-30 nM (α1β2γ1, α2β2γ1) and the test compound in the range of [0.3-10000]×10^−9 M. Nonspecific binding was defined by 10×10^−6 (α5β2γ1) and 30×10^−6 M RO7239181 and typically represented less than 5% (α5β2γ1) and less than 20% (α1β2γ1, α2β2γ1) of the total binding. Assays were incubated to equilibrium for 1 hour at 4° C. and then, membranes were filtered onto unifilter (96-well white microplate with bonded GF/C filters preincubated 20-50 minutes in 0.3% Polyethylenimine) with a Filtermate 196 harvester (Packard BioScience) and washed 4 times with cold Potassium Phosphate 10 mM pH 7.4, KCl 100 mM binding buffer. After anhydrousing, filter-retained radioactivity was detected by liquid scintillation counting. Ki values were calculated using Excel-Fit (Microsoft) and are the means of two determinations.

[2] = target: human GABAA α2β2γ1 receptor (Homo sapiens (Human), UniProt P47869+Q8N1C3); assay: as above
Experimental: The affinity of compounds at GABAA γ1 subunit-containing receptors was measured by competition for [^3H]RO7239181 (67.3 Ci/mmol; Roche) binding to membranes from HEK293F cells (ThermoFisher R79007) expressing human (transiently transfected) receptors of composition α5β2γ1, α2β2γ1, α1β2γ1.
as §1, §2
Assays were incubated to equilibrium for 1 hour at 4° C. and then, membranes were filtered onto unifilter (96-well white microplate with bonded GF/C filters preincubated 20-50 minutes in 0.3% Polyethylenimine) with a Filtermate 196 harvester (Packard BioScience) and washed 4 times with cold Potassium Phosphate 10 mM pH 7.4, KCl 100 mM binding buffer. After anhydrousing, filter-retained radioactivity was detected by liquid scintillation counting. Ki values were calculated using Excel-Fit (Microsoft) and are the means of two determinations.

[3] = target: human GABAA α1β3γ2 receptor (Homo sapiens (Human), UniProt P14867+P18507); assay: Radioligand binding assay, competition for [3H]Flumazenil, γ2-containing GABAA subtypes; settings: for γ2/γ1 Selectivity Ratio: Ki α1β3γ2 (nM)/Ki α2β2γ1 (nM); for LogSel: Log[Ki α1β3γ2 (nM)/Ki α2β2γ1 (nM)]
Experimental: The affinity of compounds at GABAA γ2 subunit-containing receptors was measured by competition for [^3H]Flumazenil (81.1 Ci/mmol; Roche) binding to HEK293F cells expressing human (transiently transfected) receptors of composition α1β3γ2.
Harvested pellets from HEK293F cells expressing the different GABAA γ2 receptor subtypes were resuspended in Mannitol Buffer pH 7,2-7,4 and processed as described above for the cells expressing the GABAA γ1 subunit-containing receptors.
Assays were incubated to equilibrium for 1 hour at 4° C. and harvested onto GF/C uni-filters (Packard) by filtration using a Packard harvester and washing with ice-cold wash buffer (50 mM Tris; pH 7.5). After anhydrousing, filter-retained radioactivity was detected by liquid scintillation counting. Ki values were calculated using Excel-Fit (Microsoft) and are the means of two determinations.

h-GABA-A α2β2γ1 = h-GABA-A α2β2γ1 (Homo sapiens (Human), UniProt P47869+Q8N1C3); assay: Two-electrode voltage clamp electrophysiology in Xenopus oocytes expressing GABAA receptors; assay type: cell-based; settings: α2β2γ1 GABAA receptor subtype expressing oocytes, reference PAMs
Experimental: Xenopus Oocytes Preparation Xenopus laevis oocytes at maturation stages V-VI were used for the expression of cloned mRNA encoding GABAA receptor subunits. Oocytes ready for RNA micro-injection were bought from Ecocyte, Castrop-Rauxel, Germany and stored in modified Barth's medium (composition in mM: NaCl 88, KCl 1, NaHCO3 2.4, HEPES 10, MgSO4 0.82, CaNO3 0.33, CaCl2 0.33, pH=7.5) at 20° C. until the experiment.
Oocytes were plated in 96-well plates for microinjection using the Roboinject automated instrument (MultiChannelSystems, Reutlingen, Germany). Approximately 50 nL of an aqueous solution containing the RNA transcripts for the subunits of the desired GABAA receptor subtype was injected into each oocyte. […] Oocytes were kept in modified Barth's medium (composition in mM: NaCl 88, KCl 1, NaHCO3 […], HEPES 10, MgSO4 0.82, CaNO3 0.33, CaCl2 0.33, pH=7.5) at 20° C. until the experiment.
Electrophysiological experiments were performed using the Roboocyte instrument (MultiChannelSystems, Reutlingen, Germany) on days 3 to 5 after the micro-injection of mRNA. During the experiment the oocytes were constantly superfused by a solution containing (in mM) NaCl 90, KCl 1, HEPES 5, MgCl2 1, CaCl2 1 (pH 7.4). Oocytes were impaled by two glass microelectrodes (resistance: 0.5-0.8 MQ) which were filled with a solution containing KCl 1M+K-acetate 1.5 M and voltage-clamped to −80 mV. The recordings were performed at room temperature using the Roboocyte two-electrode voltage clamp system (Multichannelsystem). After an initial equilibration period of 1.5 min GABA was added for 1.5 min at a concentration evoking approximately 20% of a maximal current response (EC20). After another rest interval of 2.5 min GABA was again added evoking a response of similar amplitude and shape. […] Current traces were recorded at a digitization rate of 10 Hz during and shortly before and after the GABA application.
Each compound and concentration was tested on at least 3 oocytes. Different oocytes were used for different compound concentrations.
For the analysis, the digitized current traces of the first and second GABA response were superimposed and, if necessary, rescaled to equal maximal amplitudes. The ratio between the two responses during the time interval of test compound application was calculated point by point. The extremum of the resulting “ratio trace” was taken as the efficacy (“Fold increase”) of the compound expressed as “% modulation of GABA EC20” (100*(Fold increase−1)).

[4] = Ki h-GABAA α2β2γ1, membranes of HEK293F cells, [3H]RO7239181 20-30 nM, Table 1
[5] = Ki h-GABAA α2β2γ1, membranes of HEK293F cells, [3H]RO7239181 20-30 nM, Table 2
[6] = HEK293F cells, [3H]Flumazenil 1 nM, Table 1, read-out: Ki h-GABAA α1β3γ2

SMILES | Ki [1] | Ki [2, 4] | Ki [2, 5] | Ki [3, 6] | γ2/γ1 Selectivity Ratio ([3]; Table 1) | LogSel ([3]; Table 1) | Ki [3] | LogSel ([3]; Table 3) | potentiation of the GABA-induced current (h-GABA-A α2β2γ1) | Ki ([2]; Ki h-GABAA α2β2γ1, Table 3, reference compounds and examples) | γ2/γ1 Selectivity Ratio ([3]; Table 3)
[2H]C1([2H])OCc2c(sc3c2C(c2c(F)cccc2F)=N[C@@H](C)c2nc(C(=O)N4CC(OCC)C4)nn2-3)OC1([2H])[2H] [Example 32, (3-Ethoxyazetidin-1-yl)-[(7S)-14,14,15,15-tetradeuterio-9-(2,6-difluorophenyl)-7-methyl-13,16-dioxa-18-thia-2,3,5,8-tetrazatetracyclo[8.8.0.02,6.011,17]octadeca-1(10),3,5,8,11(17)-pentaen-4-yl]methanone] | 1.88 nM | 7.7 nM | 7.7 nM | 5780 nM | 747.9 | 2.87 | – | – | – | – | –
Cc1nnc2n1-c1sc3c(c1C(c1c(F)cccc1F)=N[C@H]2C)CCCCC3F (single isomer, unassigned) [Example 10] | 2.72 nM | 18.2 nM | 18.2 nM | – | 63.6 | 1.80 | 1160 nM | – | – | – | –
Cc1nnc2n1-c1ccc(Cl)cc1C(c1ccccc1Cl)=NC2 [Triazolam, reference compound] | – | – | – | – | – | – | – | −1.5 | ~60% | – | –
C[C@@H]1N=C(c2c(F)cccc2F)c2c(sc3c2COCCC3)-n2nc(C(=O)NCC(C)(C)O)nc21 [Example 71, (7S)-9-(2,6-difluorophenyl)-N-(2-hydroxy-2-methyl-propyl)-7-methyl-13-oxa-18-thia-2,3,5,8-tetrazatetracyclo[8.8.0.02,6.011,17]octadeca-1(10),3,5,8,11(17)-pentaene-4-carboxamide] | 7.3 nM | 80 nM | 80 nM | 3920 nM | 49.0 | 1.69 | – | – | – | – | –
Cc1ncc2n1-c1ccc(Cl)cc1C(c1ccccc1F)=NC2 [Midazolam, reference compound] | – | – | – | – | – | – | – | −2.2 | ~60% | – | –
Cc1nnc2n1-c1sc3c(c1C(c1c(F)cccc1F)=N[C@H]2C)COCC[C@@H]3F (single isomer, unassigned) [Example 55] | 9 nM | 47.8 nM | 47.8 nM | – | 56.2 | 1.75 | 2690 nM | – | – | – | –
CN1C(=O)CN=C(c2ccccc2F)c2cc([N+](=O)[O-])ccc21 [Flunitrazepam, reference compound] | – | – | – | – | – | – | – | – | ~60% | – | –
Cc1nnc2n1-c1ccc(Cl)cc1C(c1ccccc1)=NC2 [Alprazolam, reference compound] | – | – | – | – | – | – | – | −2.3 | – | – | –
Cc1nnc2n1-c1sc3c(c1C(c1c(F)cccc1F)=N[C@H]2C)CCCC3 [RE-B, (7S)-9-(2,6-difluorophenyl)-3,7-dimethyl-17-thia-2,4,5,8-tetrazatetracyclo[8.7.0.02,6.011,16]heptadeca-1(10),3,5,8,11(16)-pentaene, reference compound] | – | – | – | – | – | – | 21.6 nM | – | – | 57.7 nM | 2.68
Cc1cn2c(n1)[C@H](C)N=C(c1c(F)cccc1F)c1c-2sc2c1COCCC2 [Example 58, (7S)-9-(2,6-difluorophenyl)-4,7-dimethyl-13-oxa-18-thia-2,5,8-triazatetracyclo[8.8.0.02,6.011,17]octadeca-1(10),3,5,8,11(17)-pentaene] | 2.59 nM | 25 nM | 25 nM | – | 56.0 | 1.75 | 1400 nM | – | – | – | –
C[C@@H]1N=C(c2c(F)cccc2F)c2c(sc3c2COCCC3)-n2nc(C(=O)NC[C@](C)(O)C(F)(F)F)nc21 [Example 69, (7S)-9-(2,6-difluorophenyl)-7-methyl-N-[(2S)-3,3,3-trifluoro-2-hydroxy-2-methyl-propyl]-13-oxa-18-thia-2,3,5,8-tetrazatetracyclo[8.8.0.02,6.011,17]octadeca-1(10),3,5,8,11(17)-pentaene-4-carboxamide] | 7.8 nM | 62 nM | 62 nM | 3700 nM | 59.7 | 1.78 | – | – | – | – | –
Clc1ccc2c(c1)C(c1ccccc1)=NCc1nncn1-2 [Estazolam, reference compound] | – | – | – | – | – | – | – | −2.0 | – | – | 0.0089
